This is an account of results in USRE49735E1 (BRISTOL-MYERS SQUIBB COMPANY, priority 2010, dated 2023).

Molecules are shown by their SMILES. “And” between values parts separate entries of the source, which are not always exact repeats. Equal values may be shown once. A value given as a limit tells only on which side of the number the result lay.

Chain of human mGluR5A (P41594 21-1180 isoform P41594-2): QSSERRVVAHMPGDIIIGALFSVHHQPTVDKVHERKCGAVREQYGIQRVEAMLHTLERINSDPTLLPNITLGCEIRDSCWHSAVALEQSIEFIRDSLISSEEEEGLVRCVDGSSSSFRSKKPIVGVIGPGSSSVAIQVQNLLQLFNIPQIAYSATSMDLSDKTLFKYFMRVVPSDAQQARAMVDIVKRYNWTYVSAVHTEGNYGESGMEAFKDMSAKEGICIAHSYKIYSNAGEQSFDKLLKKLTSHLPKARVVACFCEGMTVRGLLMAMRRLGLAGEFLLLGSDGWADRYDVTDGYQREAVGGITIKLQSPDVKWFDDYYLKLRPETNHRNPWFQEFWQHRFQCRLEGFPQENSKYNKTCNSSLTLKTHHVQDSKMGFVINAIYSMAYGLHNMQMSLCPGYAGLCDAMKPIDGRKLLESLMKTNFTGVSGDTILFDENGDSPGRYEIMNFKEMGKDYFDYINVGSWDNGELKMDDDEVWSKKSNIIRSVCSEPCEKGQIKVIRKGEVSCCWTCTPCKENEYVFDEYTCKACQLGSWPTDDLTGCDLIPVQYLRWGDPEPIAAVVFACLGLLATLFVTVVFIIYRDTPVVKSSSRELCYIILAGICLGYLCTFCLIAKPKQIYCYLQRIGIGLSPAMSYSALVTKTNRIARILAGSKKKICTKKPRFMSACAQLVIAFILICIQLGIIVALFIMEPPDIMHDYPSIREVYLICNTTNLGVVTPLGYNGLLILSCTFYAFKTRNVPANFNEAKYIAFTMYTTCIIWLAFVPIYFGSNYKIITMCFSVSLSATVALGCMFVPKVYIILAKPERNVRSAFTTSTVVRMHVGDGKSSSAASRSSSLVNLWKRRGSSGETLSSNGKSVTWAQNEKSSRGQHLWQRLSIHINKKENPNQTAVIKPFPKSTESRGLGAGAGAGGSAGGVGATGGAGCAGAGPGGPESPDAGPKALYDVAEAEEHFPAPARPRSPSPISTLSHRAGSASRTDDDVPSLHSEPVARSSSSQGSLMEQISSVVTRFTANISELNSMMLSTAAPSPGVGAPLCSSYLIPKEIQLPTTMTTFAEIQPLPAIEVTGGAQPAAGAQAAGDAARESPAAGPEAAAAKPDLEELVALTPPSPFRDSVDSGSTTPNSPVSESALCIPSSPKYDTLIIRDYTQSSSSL

This assay has as its target human mGluR5A (Homo sapiens, UniProt P41594). Kind of assay: mGluR5 FLIPR Assay. The note with it: positive modulator activity; HEK293 (ZF) cells with human mGluR5A and rat GLAST; Ca++ response to ~EC10 glutamate. It counts as cell-based.
Take `O=C1N[C@H](c2cc(C#Cc3cncc(F)c3)cnc2F)[C@@H](c2cccc(F)c2)O1` [Example 140, (4R,5R)-4-(2-Fluoro-5-((5-fluoropyridin-3-yl)ethynyl)pyridin-3-yl)-5-(3-fluorophenyl)oxazolidin-2-one]: the EC50 is below 100 nM.

With `O=C1N[C@H](c2cc(C#Cc3ccnc(F)c3)cnc2F)[C@@H](c2cccc(F)c2)O1` [Example 141, (4R,5R)-4-(2-Fluoro-5-((2-fluoropyridin-4-yl)ethynyl)pyridin-3-yl)-5-(3-fluorophenyl)oxazolidin-2-one], the half-maximal effective concentration (EC50) was below 100 nM.

As to `O=C1N[C@H](c2cc(C#Cc3cccnc3)cnc2F)[C@@H](c2ccc(F)cc2)O1` [Example 142, (4R,5R)-4-(2-Fluoro-5-(pyridin-3-ylethynyl)pyridin-3-yl)-5-(4-fluorophenyl)oxazolidin-2-one], the EC50 was < 100 nM and 3.7 nM.

In turn, `O=C1N[C@H](c2cc(C#Cc3cncc(F)c3)cnc2F)[C@@H](c2ccc(F)cc2)O1` [Example 143, (4R,5R)-4-(2-Fluoro-5-((5-fluoropyridin-3-yl)ethynyl)pyridin-3-yl)-5-(4-fluorophenyl)oxazolidin-2-one] gave an EC50 below 100 nM.

`O=C1N[C@H](c2cc(C#Cc3cncc(F)c3)ncc2F)[C@@H](c2ccc(F)cc2)O1` [Example 144, (4R,5R)-4-(5-Fluoro-2-((5-fluoropyridin-3-yl)ethynyl)pyridin-4-yl)-5-(4-fluorophenyl)oxazolidin-2-one]: the EC50 was below 100 nM.

Compound `O=C1N[C@H](c2cc(C#Cc3cccnc3)cnc2F)[C@@H](c2ccc(C(F)(F)F)cc2)O1` [Example 145, (4R,5R)-4-(2-Fluoro-5-(pyridin-3-ylethynyl)pyridin-3-yl)-5-(4-(trifluoromethyl)phenyl)oxazolidin-2-one] yielded a 50% effective concentration (EC50) below 100 nM.

In turn, `O=C1N[C@H](c2cc(C#Cc3cccnc3)cnc2F)[C@@H](c2ccc(Cl)cc2)O1` [Example 146, (4R,5R)-5-(4-Chlorophenyl)-4-(2-fluoro-5-(pyridin-3-ylethynyl)pyridin-3-yl)oxazolidin-2-on] displayed an EC50 below 100 nM.

With `O=C1N[C@H](c2cc(C#Cc3ncccc3F)cnc2F)[C@@H](c2cccc(F)c2)O1` [Example 147, (4R,5R)-4-(2-Fluoro-5-((3-fluoropyridin-2-yl)ethynyl)pyridin-3-yl)-5-(3-fluorophenyl)oxazolidin-2-one], the EC50 was above 1000 nM.

Compound `O=C1N[C@H](c2cc(C#Cc3ccccn3)cnc2F)[C@@H](c2cccc(F)c2)O1` [Example 148, (4R,5R)-4-(2-Fluoro-5-(pyridin-2-ylethynyl)pyridin-3-yl)-5-(3-fluorophenyl)oxazolidin-2-one] yielded an EC50 above 1000 nM.

The compound `O=C1N[C@H](c2cc(C#Cc3ccnc(C4CC4)c3)cnc2F)[C@@H](c2ccc(Cl)cc2)O1` [Example 150, (4R,5R)-5-(4-Chlorophenyl)-4-(5-((2-cyclopropylpyridin-4-yl)ethynyl)-2-fluoropyridin-3-yl)oxazolidin-2-one] gave an EC50 above 1000 nM.

`O=C1N[C@H](c2cc(C#Cc3ccc(C4CC4)nc3)cnc2F)[C@@H](c2ccc(F)cc2)O1` [Example 151, (4R,5R)-4-(5-((6-Cyclopropylpyridin-3-yl)ethynyl)-2-fluoropyridin-3-yl)-5-(4-fluorophenyl)oxazolidin-2-one]: the EC50 is above 1000 nM.

In turn, `O=C1N[C@H](c2cc(C#Cc3ccnc(C4CC4)c3)cnc2F)[C@@H](c2ccc(F)cc2)O1` [Example 152, (4R,5R)-4-(5-((2-Cyclopropylpyridin-4-yl)ethynyl)-2-fluoropyridin-3-yl)-5-(4-fluorophenyl)oxazolidin-2-one] yielded an EC50 above 1000 nM.

`O=C1N[C@H](c2cc(C#Cc3cccc(C4CC4)n3)cnc2F)[C@@H](c2ccc(F)cc2)O1` [Example 153, (4R,5R)-4-(5-((6-Cyclopropylpyridin-2-yl)ethynyl)-2-fluoropyridin-3-yl)-5-(4-fluorophenyl)oxazolidin-2-one]: the EC50 was 100 to 1000 nM and 188 nM.

For orientation: EC50 means the concentration giving half of the maximal effect. Low readings indicate a more potent agent, high ones a less potent agent.
